From ChEMBL document CHEMBL4364293, “Design, Synthesis, and Structure-Activity Relationship of 7-Propanamide Benzoxaboroles as Potent Anticancer Agents” (J Med Chem, 2019)
Each block holds one compound with its values, some of them ahead of it. Calls of active or inactive are those of the source. No cut-off for these calls is given here.

Legend:
SK-OV-3 [1] = assay: Antiproliferative activity against human SKOV3 cells after 72 hrs by MTT assay; format: functional, cell-based; conditions: SK-OV-3, 72 h
WI-38 = assay: Cytotoxicity against human WI38 cells after 72 hrs by MTT assay; format: cell-based; conditions: WI-38, 72 h
MDA-MB-231 = assay: Antiproliferative activity against human MDA-MB-231 cells after 72 hrs by MTT assay; format: functional, cell-based; conditions: MDA-MB-231, 72 h
[2] = Selectivity ratio, ratio of IC50 for human WI38 cells to IC50 for human SKOV3 cells; format: toxicity; conditions: WI38 cells versus SKOV3 cells, read-out: Ratio IC50
HCT-116 = assay: Antiproliferative activity against human HCT116 cells after 72 hrs by MTT assay; format: functional, cell-based; conditions: HCT-116, 72 h
[3] = Half-life in Sprague-Dawley rat at 10 mg/kg, po by non-compartmental analysis; format: ADME, organism-based; conditions: in vivo
[4] = Tmax in Sprague-Dawley rat at 10 mg/kg, po by non-compartmental analysis; format: ADME, organism-based; conditions: in vivo
[5] = Toxicity in BALB/c mouse xenografted with human SW480 cells assessed as reduction in body weight at 2 to 10 mg/kg, ip administered once daily for 33 days and measured every 3 days during compound dosing; format: organism-based; conditions: in vivo
[6] = Volume of distribution at steady state in Sprague-Dawley rat at 2 mg/kg, iv by non-compartmental analysis; format: ADME, organism-based; conditions: in vivo, read-out: Vdss
SW480 [7] = assay: Antitumor activity against human SW480 cells xenografted in ip dosed BALB/c mouse assessed as reduction in tumor volume administered once daily for 33 days and measured every 3 days during compound dosing; format: functional, organism-based
[8] = Efflux ratio of apparent permeability from basolateral to apical over apical to basolateral side in human Caco2 cells; format: ADME, cell-based; conditions: Caco-2
[9] = biological target: Leucine--tRNA ligase, cytoplasmic (Homo sapiens) (UniProt Q9P2J5); assay: Inhibition of human leucyl-tRNA synthetase
Chain of Leucine--tRNA ligase, cytoplasmic (Homo sapiens) (Q9P2J5 whole entry, looked up): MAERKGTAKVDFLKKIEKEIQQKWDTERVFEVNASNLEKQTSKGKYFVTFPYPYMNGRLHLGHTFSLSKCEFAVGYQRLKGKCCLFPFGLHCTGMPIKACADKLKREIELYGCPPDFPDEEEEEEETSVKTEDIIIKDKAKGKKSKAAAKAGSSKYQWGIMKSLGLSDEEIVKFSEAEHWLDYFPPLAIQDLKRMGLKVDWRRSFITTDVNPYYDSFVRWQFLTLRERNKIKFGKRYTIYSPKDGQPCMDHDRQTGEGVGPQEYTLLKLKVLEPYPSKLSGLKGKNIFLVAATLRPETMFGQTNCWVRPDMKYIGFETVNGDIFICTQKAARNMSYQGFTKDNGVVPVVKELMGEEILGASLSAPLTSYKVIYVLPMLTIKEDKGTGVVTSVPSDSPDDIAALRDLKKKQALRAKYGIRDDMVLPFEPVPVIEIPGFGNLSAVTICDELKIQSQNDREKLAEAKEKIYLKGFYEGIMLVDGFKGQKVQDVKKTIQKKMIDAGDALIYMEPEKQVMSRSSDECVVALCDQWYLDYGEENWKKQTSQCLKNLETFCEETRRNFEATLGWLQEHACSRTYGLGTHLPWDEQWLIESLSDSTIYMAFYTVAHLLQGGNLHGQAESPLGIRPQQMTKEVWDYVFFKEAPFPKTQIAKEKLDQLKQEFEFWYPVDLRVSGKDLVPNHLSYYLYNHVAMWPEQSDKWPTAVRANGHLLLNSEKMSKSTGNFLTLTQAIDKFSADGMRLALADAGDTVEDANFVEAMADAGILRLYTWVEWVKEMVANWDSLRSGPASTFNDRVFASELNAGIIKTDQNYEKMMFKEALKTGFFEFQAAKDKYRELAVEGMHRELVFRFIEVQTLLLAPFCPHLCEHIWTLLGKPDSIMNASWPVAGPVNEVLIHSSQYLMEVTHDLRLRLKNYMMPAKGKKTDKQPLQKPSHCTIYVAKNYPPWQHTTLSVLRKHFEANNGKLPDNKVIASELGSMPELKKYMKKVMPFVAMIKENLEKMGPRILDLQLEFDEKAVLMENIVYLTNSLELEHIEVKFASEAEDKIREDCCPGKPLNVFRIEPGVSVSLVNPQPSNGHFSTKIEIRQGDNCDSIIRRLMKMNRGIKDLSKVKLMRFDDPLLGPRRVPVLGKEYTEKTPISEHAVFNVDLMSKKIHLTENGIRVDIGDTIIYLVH

[10] = Apparent permeability across apical to basolateral side in human Caco2 cells; format: ADME, cell-based; conditions: Caco-2
[11] = Apparent permeability across basolateral to apical side in human Caco2 cells; format: ADME, cell-based; conditions: Caco-2
[12] = Clearance in Sprague-Dawley rat at 2 mg/kg, iv by non-compartmental analysis; format: ADME, organism-based; conditions: in vivo
[13] = AUC infinity in Sprague-Dawley rat at 10 mg/kg, po by non-compartmental analysis; format: ADME, organism-based; parameters: dose 10 mg/kg, time infinity, route oral; conditions: in vivo
[14] = Half-life in Sprague-Dawley rat at 2 mg/kg, iv by non-compartmental analysis; format: ADME, organism-based; conditions: in vivo
[15] = AUC infinity in Sprague-Dawley rat at 2 mg/kg, iv by non-compartmental analysis; format: ADME, organism-based; parameters: dose 2 mg/kg, time infinity, route intravenous; conditions: in vivo
SW480 [16] = assay: Antitumor activity against human SW480 cells xenografted in ip dosed BALB/c mouse assessed as reduction in tumor weight administered once daily for 33 days and measured every 3 days during compound dosing; format: functional, organism-based
[17] = Cmax in Sprague-Dawley rat at 10 mg/kg, po by non-compartmental analysis; format: ADME, organism-based; parameters: dose 10 mg/kg, route oral; conditions: in vivo
[18] = Oral bioavailability in Sprague-Dawley rat at 10 mg/kg by non-compartmental analysis; format: ADME, organism-based; conditions: in vivo
SK-OV-3 [19] = assay: Induction of apoptosis in human SKOV3 cells assessed as early apoptotic cells at 1 uM after 48 hrs by Annexin V-FITC/propidium iodide staining based FACS analysis (reference value: 1.95%); format: functional
SK-OV-3 [20] = assay: Induction of apoptosis in human SKOV3 cells assessed as viable cells at 3 uM after 48 hrs by Annexin V-FITC/propidium iodide staining based FACS analysis (reference value: 91%); format: functional; conditions: SK-OV-3, 48 h, read-out: Activity
SK-OV-3 [21] = assay: Induction of apoptosis in human SKOV3 cells assessed as late apoptotic cells at 1 uM after 48 hrs by Annexin V-FITC/propidium iodide staining based FACS analysis (reference value: 5.97%); format: functional
NCI-H460 [22] = assay: Induction of apoptosis in human NCI-H460 cells assessed as increase in cleaved caspase-9 expression at low concentration after 48 hrs by Western blot analysis; format: functional, cell-based
NCI-H460 [23] = assay: Induction of apoptosis in human NCI-H460 cells assessed as increase in cleaved caspase-3 expression at low concentration after 48 hrs by Western blot analysis; format: functional, cell-based
SK-OV-3 [24] = assay: Induction of apoptosis in human SKOV3 cells assessed as necrotic cells at 3 uM after 48 hrs by Annexin V-FITC/propidium iodide staining based FACS analysis (reference value: 1.06%); format: functional
SK-OV-3 [25] = assay: Induction of apoptosis in human SKOV3 cells assessed as viable cells at 10 uM after 48 hrs by Annexin V-FITC/propidium iodide staining based FACS analysis (reference value: 91%); format: functional; conditions: SK-OV-3, 48 h, read-out: Activity
NCI-H460 [26] = assay: Induction of apoptosis in human NCI-H460 cells assessed as increase in cleaved PARP expression at low concentration after 48 hrs by Western blot analysis; format: functional, cell-based
SK-OV-3 [27] = assay: Induction of apoptosis in human SKOV3 cells assessed as early apoptotic cells at 10 uM after 48 hrs by Annexin V-FITC/propidium iodide staining based FACS analysis (reference value: 1.95%); format: functional
SK-OV-3 [28] = assay: Inhibition of colony formation in human SKOV3 cells at 0.0625 to 1 uM supplemented with fresh medium containing compound every 72 hrs for 2 weeks by crystal violet staining based assay; format: functional, cell-based
SK-OV-3 [29] = assay: Induction of apoptosis in human SKOV3 cells assessed as viable cells at 1 uM after 48 hrs by Annexin V-FITC/propidium iodide staining based FACS analysis (reference value: 91%); format: functional; conditions: SK-OV-3, 48 h, read-out: Activity
SK-OV-3 [30] = assay: Induction of apoptosis in human SKOV3 cells assessed as necrotic cells at 10 uM after 48 hrs by Annexin V-FITC/propidium iodide staining based FACS analysis (reference value: 1.06%); format: functional
SK-OV-3 [31] = assay: Induction of apoptosis in human SKOV3 cells assessed as necrotic cells at 1 uM after 48 hrs by Annexin V-FITC/propidium iodide staining based FACS analysis (reference value: 1.06%); format: functional
SK-OV-3 [32] = assay: Induction of apoptosis in human SKOV3 cells after 48 hrs by Annexin V-FITC/propidium iodide staining based FACS analysis (reference value: 1.06%); format: functional, cell-based
SK-OV-3 [33] = assay: Induction of apoptosis in human SKOV3 cells assessed as late apoptotic cells at 10 uM after 48 hrs by Annexin V-FITC/propidium iodide staining based FACS analysis (reference value: 5.97%); format: functional
SK-OV-3 [34] = assay: Induction of apoptosis in human SKOV3 cells assessed as early apoptotic cells at 3 uM after 48 hrs by Annexin V-FITC/propidium iodide staining based FACS analysis (reference value: 1.95%); format: functional
SK-OV-3 [35] = assay: Induction of apoptosis in human SKOV3 cells assessed as late apoptotic cells at 3 uM after 48 hrs by Annexin V-FITC/propidium iodide staining based FACS analysis (reference value: 5.97%); format: functional

IC50 (SK-OV-3 [1]): 29 µM
IC50 (MDA-MB-231): 21 µM
IC50 (HCT-116): 3.7 µM
SMILES: COc1cc(OC)cc(-c2cccc(NC(=O)CCc3ccc4c(c3)B(O)OC4)c2)c1
IC50 (WI-38): > 100 µM

IC50 (SK-OV-3 [1]): 0.46 µM
IC50 (MDA-MB-231): 0.46 µM
IC50 (HCT-116): 0.31 µM
SMILES: O=C(CCc1cccc2c1B(O)OC2)Nc1cccc(-c2cccc(OC(F)(F)F)c2)c1
IC50 (WI-38): 9.8 µM

IC50 (SK-OV-3 [1]): 24 µM
IC50 (MDA-MB-231): 25 µM
IC50 (HCT-116): 40 µM
SMILES: COc1cccc(-c2cccc(NC(=O)CCc3ccccc3)c2)c1
IC50 (WI-38): > 100 µM

Further lines, the compound ahead of its results:

SMILES: O=C(CCc1cccc2c1B(O)OC2)Nc1ccccc1
IC50 (SK-OV-3 [1]): 0.2 µM
IC50 (WI-38): 30 µM
IC50 (MDA-MB-231): 0.23 µM
selectivity ratio [2]: 150
IC50 (HCT-116): 0.35 µM

SMILES: CC(=O)c1ccc(-c2cccc(NC(=O)CCc3cccc4c3B(O)OC4)c2)cc1
half-life [3]: 2 h
Tmax [4]: 0.25 h
Activity [5]: Non-Toxic
Vd [6]: 0.882 L/kg
IC50 (SK-OV-3 [1]): 0.021 µM
Activity (SW480 [7]): Dose-dependent effect
efflux ratio [8]: 0.56
IC50 (WI-38): 3.7 µM
inhibition [9]: inactive
Papp A→B [10]: 3.95 ×10⁻⁶ cm/s
Papp B→A [11]: 2.23 ×10⁻⁶ cm/s
IC50 (MDA-MB-231): 0.056 µM
clearance [12]: 17.5 mL/min/kg
selectivity ratio [2]: 180
AUC(0-inf) [13]: 459 ng·h/mL
half-life [14]: 0.6 h
AUC(0-inf) [15]: 1920 ng·h/mL
Activity (SW480 [16]): Dose-dependent effect
Cmax [17]: 373 ng/mL
IC50 (HCT-116): 0.11 µM
bioavailability [18]: 4.6%

SMILES: COc1cccc(-c2cccc(NC(=O)CCc3cccc4c3B(O)OC4)c2)c1
half-life [3]: 2.2 h
Tmax [4]: 0.2 h
Activity [5]: Non-Toxic
Activity (SK-OV-3 [19]): 12.8%
Vd [6]: 7.63 L/kg
viability at 3 µM (SK-OV-3 [20]): 67.8%
Activity (SK-OV-3 [21]): 15.4%
Activity (NCI-H460 [22]): Active
Activity (NCI-H460 [23]): Active
IC50 (SK-OV-3 [1]): 0.033 µM
Activity (SW480 [7]): Dose-dependent effect
Activity (SK-OV-3 [24]): 0.593%
efflux ratio [8]: 1.36
IC50 (WI-38): 3.2 µM
inhibition [9]: inactive
viability at 10 µM (SK-OV-3 [25]): 48.1%
Activity (NCI-H460 [26]): Active
Papp A→B [10]: 19.5 ×10⁻⁶ cm/s
Activity (SK-OV-3 [27]): 20.6%
inhibition (SK-OV-3 [28]): Active
viability at 1 µM (SK-OV-3 [29]): 71%
Activity (SK-OV-3 [30]): 0.505%
Papp B→A [11]: 26.5 ×10⁻⁶ cm/s
Activity (SK-OV-3 [31]): 0.808%
IC50 (MDA-MB-231): 0.037 µM
clearance [12]: 62.5 mL/min/kg
selectivity ratio [2]: 100
AUC(0-inf) [13]: 547 ng·h/mL
half-life [14]: 1.4 h
Activity (SK-OV-3 [32]): Dose-dependent effect
AUC(0-inf) [15]: 551 ng·h/mL
Activity (SK-OV-3 [33]): 30.7%
Activity (SW480 [16]): Dose-dependent effect
Activity (SK-OV-3 [34]): 14.5%
Cmax [17]: 434 ng/mL
IC50 (HCT-116): 0.26 µM
Activity (SK-OV-3 [35]): 17.1%
bioavailability [18]: 19.5%

SMILES: C#Cc1ccc(NC(=O)CCc2cccc3c2B(O)OC3)cc1
IC50 (SK-OV-3 [1]): 6.3 µM
IC50 (WI-38): > 100 µM
IC50 (MDA-MB-231): 6.6 µM
IC50 (HCT-116): 45 µM

SMILES: O=C(CCc1cccc2c1B(O)OC2)Nc1cccc(-c2ccc(F)cc2)c1
IC50 (SK-OV-3 [1]): 0.093 µM
IC50 (WI-38): 4.1 µM
IC50 (MDA-MB-231): 0.25 µM
selectivity ratio [2]: 44
IC50 (HCT-116): 0.55 µM

SMILES: COc1cccc(-c2cccc(NC(=O)CCc3cccc4c3COB4O)c2)c1
IC50 (SK-OV-3 [1]): 78 µM
IC50 (WI-38): > 100 µM
IC50 (MDA-MB-231): 76 µM
IC50 (HCT-116): 46 µM

SMILES: CC(C)c1cccc(NC(=O)CCc2cccc3c2B(O)OC3)c1
IC50 (SK-OV-3 [1]): 0.51 µM
IC50 (WI-38): 22 µM
IC50 (MDA-MB-231): 1.6 µM
IC50 (HCT-116): 1.6 µM
